Data published in the supplement of paper PMC10307832.

Key:
Test in all cases: relative viability (nuclei count vs DMSO), 5 days (fraction); higher = more cells survive
[1] = compound: Cc1ccc(F)c(NC(=O)Nc2ccc(-c3cccc4[nH]nc(N)c34)cc2)c1 [Linifanib] + O=C(c1cc(Cc2n[nH]c(=O)c3ccccc23)ccc1F)N1CCN(C(=O)C2CC2)CC1 [Olaparib] (partner 8 µM)
How it was run: (§1)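 Lung cancer cell lines were pin-tool dosed in 1536-well plates on the day after seeding, with either a lone drug or a fixed anchor-drug dose plus five library-drug doses (not always all listed) in √10 steps. Nuclei were counted on 4× images after 5 days. Relative viability is the ratio of treated-well to vehicle-well nuclei counts, with each value a median of duplicate plates.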

[2] = compound: Cc1ccc(F)c(NC(=O)Nc2ccc(-c3cccc4[nH]nc(N)c34)cc2)c1 [Linifanib] + CCNC(=O)c1noc(-c2cc(C(C)C)c(O)cc2O)c1-c1ccc(CN2CCOCC2)cc1 [Luminespib] (partner 0.01 µM)
How it was run: as §1

[3] = compound: Cc1ccc(F)c(NC(=O)Nc2ccc(-c3cccc4[nH]nc(N)c34)cc2)c1 [Linifanib] + Cc1nc(NC(=O)N2CCC[C@H]2C(N)=O)sc1-c1ccnc(C(C)(C)C(F)(F)F)c1 [Alpelisib] (partner 2 µM)
How it was run: as §1

[4] = compound: Cc1ccc(F)c(NC(=O)Nc2ccc(-c3cccc4[nH]nc(N)c34)cc2)c1 [Linifanib] + COc1cccc2cc(-c3nc([C@H]4CC[C@H](C(=O)O)CC4)n4ncnc(N)c34)[nH]c12 [OSI-027] (partner 0.5 µM)
How it was run: as §1

[5] = compound: Cc1ccc(F)c(NC(=O)Nc2ccc(-c3cccc4[nH]nc(N)c34)cc2)c1 [Linifanib] + Nc1nc2[nH]cc(CCc3ccc(C(=O)N[C@@H](CCC(=O)O)C(=O)O)cc3)c2c(=O)[nH]1 [Pemetrexed] (partner 0.2 µM)
How it was run: as §1

[6] = compound: Cc1ccc(F)c(NC(=O)Nc2ccc(-c3cccc4[nH]nc(N)c34)cc2)c1 [Linifanib] + CC1(C)CCC(c2ccc(Cl)cc2)=C(CN2CCN(c3ccc(C(=O)NS(=O)(=O)c4ccc(N[C@H](CCN5CCOCC5)CSc5ccccc5)c(S(=O)(=O)C(F)(F)F)c4)cc3)CC2)C1 [Navitoclax] (partner 0.5 µM)
How it was run: as §1

Row | Cell Line | relative viability ([1]; first compound 0.03162 µM) | relative viability ([1]; first compound 0.1 µM) | relative viability ([1]; first compound 0.3162 µM) | relative viability ([2]; first compound 0.03162 µM) | relative viability ([2]; first compound 0.1 µM) | relative viability ([2]; first compound 0.3162 µM) | relative viability ([3]; first compound 0.03162 µM) | relative viability ([3]; first compound 0.1 µM) | relative viability ([3]; first compound 0.3162 µM) | relative viability ([4]; first compound 0.03162 µM) | relative viability ([4]; first compound 0.1 µM) | relative viability ([4]; first compound 0.3162 µM) | relative viability ([5]; first compound 0.03162 µM) | relative viability ([5]; first compound 0.1 µM) | relative viability ([5]; first compound 0.3162 µM) | relative viability ([6]; first compound 0.03162 µM) | relative viability ([6]; first compound 0.1 µM) | relative viability ([6]; first compound 0.3162 µM)
1 | NCI-H596 | 0.633 | 0.615 | 0.724 | 1.02 | 1.1 | 1.17 | 0.544 | 0.517 | 0.431 | 0.625 | 0.879 | 0.71 | 0.461 | 0.535 | 0.555 | 1.12 | 1.04 | 0.882
2 | A-427 | 0.722 | 0.766 | 0.732 | 0.912 | 1.09 | 0.814 | 1.13 | 1.16 | 1.09 | 0.526 | 0.512 | 0.423 | 0.96 | 0.992 | 0.945 | 1.07 | 0.986 | 0.998
3 | HOP-62 | 0.546 | 0.243 | 0.534 | 0.927 | 0.964 | 0.866 | 1.38 | 1.03 | 1.07 | 0.982 | 0.874 | 0.767 | 0.312 | 0.261 | 0.295 | 1 | 1.07 | 0.859
4 | NCI-H647 | 0.678 | 0.68 | 0.54 | 0.149 | 0.325 | 0.114 | 1.07 | 1.21 | 0.963 | 0.703 | 0.795 | 0.587 | 0.148 | 0.153 | 0.203 | 1.23 | 1.03 | 1.01
5 | NCI-H2170 | 0.612 | 0.701 | 0.566 | 0.686 | 0.844 | 0.741 | 0.787 | 0.875 | 0.776 | 0.655 | 0.747 | 0.732 | 0.265 | 0.276 | 0.297 | 0.557 | 0.616 | 0.448
6 | LCLC-97TM1 | 0.453 | 0.402 | 0.502 | 0.721 | 0.766 | 0.595 | 0.284 | 0.292 | 0.246 | 0.718 | 0.624 | 0.563 | 0.202 | 0.16 | 0.146 | 0.436 | 0.417 | 0.321
7 | NCI-H1734 | 0.591 | 0.68 | 0.597 | 0.223 | 0.216 | 0.174 | 0.748 | 0.773 | 0.679 | 0.597 | 0.618 | 0.53 | 0.401 | 0.447 | 0.45 | 0.851 | 0.808 | 0.789
8 | H3255 | 0.619 | 0.567 | 0.574 | 0.85 | 0.94 | 0.976 | 0.752 | 0.787 | 0.706 | 0.58 | 0.606 | 0.583 | 0.555 | 0.586 | 0.529 | 0.557 | 0.642 | 0.562
9 | HCC-15 | 0.827 | 0.772 | 0.706 | 0.387 | 0.278 | 0.3 | 0.881 | 0.941 | 0.887 | 0.735 | 0.795 | 0.7 | 0.239 | 0.229 | 0.232 | 0.651 | 0.776 | 0.682
10 | NCI-H2126 | 0.986 | 0.912 | 0.9 | 0.896 | 0.967 | 0.91 | 0.791 | 0.793 | 0.765 | 0.742 | 0.747 | 0.665 | 0.713 | 0.689 | 0.714 | 0.836 | 0.838 | 0.816
11 | NCI-H1915 | 0.264 | 0.26 | 0.255 | 0.826 | 0.804 | 0.679 | 1.08 | 1.08 | 1.06 | 0.668 | 0.688 | 0.616 | 0.588 | 0.502 | 0.502 | 0.78 | 0.821 | 0.788
12 | NCI-H441 | 0.673 | 0.5 | 0.433 | 0.371 | 0.297 | 0.252 | 0.649 | 1.05 | 0.735 | 0.588 | 0.767 | 0.607 | 0.274 | 0.291 | 0.222 | 0.705 | 0.637 | 0.591
13 | NCI-H1437 | 0.631 | 0.653 | 0.603 | 1.12 | 1.17 | 1.04 | 1.02 | 0.999 | 0.868 | 0.881 | 0.895 | 0.908 | 0.323 | 0.339 | 0.286 | 1.1 | 1.12 | 1.07
14 | LC-2-ad | 0.729 | 0.705 | 0.55 | 0.968 | 0.958 | 1.05 | 0.749 | 0.912 | 0.752 | 0.722 | 0.951 | 0.855 | 0.307 | 0.293 | 0.269 | 0.48 | 0.553 | 0.429
15 | UMC-11 | 0.388 | 0.485 | 0.374 | 0.958 | 1.1 | 1.08 | 0.945 | 1.15 | 0.99 | 0.446 | 0.465 | 0.45 | 0.763 | 0.772 | 0.787 | 0.304 | 0.41 | 0.366
16 | NCI-H1666 | 0.809 | 0.716 | 0.766 | 1.03 | 1.04 | 0.999 | 0.951 | 1.15 | 1.1 | 0.882 | 0.903 | 0.784 | 0.943 | 0.876 | 0.892 | 0.982 | 0.948 | 1.17
17 | NCI-H1993 | 1.03 | 1.13 | 0.963 | 0.864 | 0.933 | 1.03 | 0.628 | 0.711 | 0.646 | 0.495 | 0.552 | 0.61 | 0.642 | 0.627 | 0.637 | 0.806 | 1.01 | 0.971
18 | NCI-H1944 | 0.42 | 0.434 | 0.367 | 0.67 | 0.727 | 0.733 | 0.846 | 0.848 | 0.695 | 0.405 | 0.462 | 0.409 | 0.678 | 0.705 | 0.675 | 1.05 | 1.05 | 0.98
19 | NCI-H2009 | 0.675 | 0.705 | 0.671 | 1.03 | 1.05 | 0.965 | 1.16 | 1.19 | 1.08 | 0.705 | 0.673 | 0.644 | 1.08 | 0.989 | 0.917 | 1.13 | 1.14 | 1.13
20 | NCI-H460 | 0.539 | 0.464 | 0.471 | 0.0304 | 0.0311 | 0.0301 | 0.432 | 0.602 | 0.469 | 0.682 | 0.768 | 0.611 | 0.0619 | 0.0626 | 0.0566 | 1.1 | 1.45 | 1
